The text below walks through data of patent publication US6361788B1, “Synergistic biocide composition” (Thor Chemie GmbH, priority 1997, dated 2002).

Read-outs that look alike come from different tables or passages of the source.

The test system of this experiment is Penicillium funiculosum. Nature of the experiment: MIC and synergy of MIT/BIT (1:1) and BNPD in Sabouraud maltose broth, 72 h. The class given is cell-based. The following applies: for growth of the microorganism: MIT/BIT 0 ppm; for MIC: Talaromyces funiculosus. How it is done: In all the examples in which an active substance mixture of MIT and BIT as well as additionally a further active biocidal substance was used, the weight ratio of MIT to BIT was 1:1.
The synergy index is calculated according to the method of F. C. Kull et al., Applied Microbiology, Vol. 9 (1961), p. 538. Here the synergy index is calculated using the following formula:
Synergy index SI=Qa/QA+Qb/QB.
The synergy of an active substance that contains 2-bromo-2-nitropropane-1,3-diol (BNPD) in addition to MIT and BIT, against the microorganism Penicillium funiculosum is shown as in Example 1.
The test batches contained a Sabouraud maltose broth as a nutrient medium. The spore concentration was 10^6 per mL. The incubation time was 72 h at 25° C. Each sample was incubated on an incubation shaker at 120 rpm.

Where [1] appears, read: MIT/BIT 0.0% by wt, BNPD 100.0% by wt, 72 h.

As for `O=[N+]([O-])C(Br)(CO)CO` [BNPD, 2-bromo-2-nitropropane-1,3-diol], the Qb/QB under setting [1] is given as 1.00. Besides, the “Synergy index Qa/QA + Qb/QB” value under setting [1] is reported as 1.00. In addition, the “growth of the microorganism” value (BNPD 25 ppm, 72 h) was “+”; the “growth of the microorganism” value (BNPD 50 ppm, 72 h) was “+”; the “growth of the microorganism” value (BNPD 100 ppm, 72 h) was “+”; the “growth of the microorganism” value (BNPD 150 ppm, 72 h) is reported as “+”; the “growth of the microorganism” value (BNPD 200 ppm, 72 h) is listed as “+”; the “growth of the microorganism” value (BNPD 300 ppm, 72 h) is given as “+”. Besides, the “growth of the microorganism” value is recorded as “+” (BNPD 400 ppm, 72 h); “−” (BNPD 600 ppm, 72 h); “−” (BNPD 800 ppm, 72 h); “−” (BNPD 1000 ppm, 72 h). Moreover, the MIC turned out to be 600 µg/mL (MIT/BIT 0.0% by wt, BNPD 100.0% by wt, 72 h, read-out: MIC at BNPD concentration Qb); 600 µg/mL (MIT/BIT 0.0% by wt, BNPD 100.0% by wt, 72 h, read-out: MIC at Total concentration MIT/BIT + BNPD); 600 µg/mL (used alone, 72 h at 25° C., read-out: MIC value).
